In publication PMC4549706, “Rational Design of Highly Potent and Slow-Binding Cytochrome bc1 Inhibitor as Fungicide by Computational Substitution Optimization” (Scientific Reports, 2015):
Converted amounts (≈) assume the structure as drawn. Where two headings read alike, the source gives them in different places.

Legend:
[1] = test system: Sphaerotheca fuliginea (S. fuliginea); assay: Greenhouse fungicidal activity, potted cucumber, powdery mildew; format: in vivo; conditions: Podosphaera fuliginea
Description: For a further validation, the controlling efficacy of compound 18 against downy mildew and powdery mildew disease was tested in greenhouse and field models.
The fungicidal activity of compound 18 against P. cubensis and S. fuliginea was evaluated according to a previously published method[30] and a potted-plant test method was adopted. […]
Greenhouse Fungicidal Activity
The fungicidal activity of compound 18 against P. cubensis and S. fuliginea was evaluated according to a previously published method 17 and a potted-plant test method was adopted. Commercial fungicide AZ was evaluated as a control under the same conditions.
Cucumber seeds were soaked in water for 2 h at 50℃ and then were kept moist for 24 h at 28℃ in an incubator. When the radicles grew to 0.5 cm, the seeds were grown in plastic pots containing a 1:1 (v/v) mixture of vermiculite and peat. At the stage of two leaves, all of the cucumber plants used for inoculations were divided into two groups to test for protective and curative effects. In the protective action, compound 18 and commercial fungicide AZ were sprayed on the leaves before the inoculation. However, the fungal inoculation and chemical spraying are reverse in the […] action.
In the protective action, compound 18 and commercial fungicide AZ were sprayed with a hand spray on the surface of the seed leaves at concentrations of 200, 100, 50, 25, 12.5, 6.25, 3.125, 1.5625 mg/L. After 2 h, inoculations of P. cubensis and S. fuliginea were carried out by spraying a conidial suspension (concentration […]), which was repeated 4 times.
After inoculation, the cucumber seedlings were cultured in a culture room at 25±2℃, 70%~80% relative humidity, and 16L:8D photoperiod for 8 d. In the curative action, the fungal inoculation and chemical spraying were reversed with the protective action. Foliar spray with fungicides to inoculated cucumber plants (before disease expression) till near-run-oﬀ was made on the 7th and 15th day after emergence. The fungicidal activity was evaluated when the nontreated cucumber plant fully developed symptoms. The area of inoculated and treated leaves covered by disease symptoms was assessed and compared to that of nontreated ones to determine the average disease index.
The disease range (i) was visually evaluated on the […]rst true leaf and ranked as a percentage infected area using a rating of 0, 1, 3, 5, 7, or 9, denoting proportions of disease over the whole leaf area of 0%, < 5%, 6–10%, 11–25%, 26–50%, and > 50%, respectively 18.
(§1) The disease index and control effect of compound 18 were calculated via the following […]
(§2) Disease index (%) = ∑(Ni × i)/(N × 9) × 100 […]

P. cubensis = assay: Field trial, cucumber naturally infected, downy mildew; format: in vivo, Pseudoperonospora cubensis; conditions: 7th day
Description: To further study the potential of compound 18 against powdery mildew and downy mildew, field experiments were conducted during the growing season of summer squash and cucumber. The summer squash plants at a fruiting stage naturally infected by S. fuliginea were used. […] Almost no lesions were observed on the leaves of summer squash. […] Lesions on the leaves of control plants, however, expanded quickly, and intense fungal hyphae could be observed. The curative effect is approximately 64.85% for the AZ-treated (93.75 g.ai/ha) summer squash. In addition, field trials for the treatment of downy mildew of cucumber were also performed. Cucumber plants naturally infected by P. cubensis were used for the study. Fungi on the leaves of control plants expanded quickly and lesions could be observed.
In the field trials, summer squash plants which is naturally infected by S. fuliginea and cucumber plants which is naturally infected by P. cubensis were used.
as §1, §2
Each treatment took up in four plots and was distributed randomly in each […]eld. The relative control effects were assessed after the 7th day of foliar application 18. […]

Row | Compound | EC90 ([1]; greenhouse, cucumber, sprayed after inoculation, read-out: curative EC90 against S. fuliginea) | EC90 ([1]; greenhouse, cucumber, sprayed before inoculation, read-out: protective EC90 against S. fuliginea) | curative effect, downy mildew (P. cubensis) (P. cubensis; 75 g.ai/ha) | EC90 ([1]; read-out: curative EC90 against S. fuliginea) | EC90 ([1]; read-out: protective EC90 against S. fuliginea) | curative effect, downy mildew (P. cubensis) (P. cubensis; 60 g.ai/ha)
1 | CO/C=C(/C(=O)OC)c1ccccc1Oc1cc(Oc2ccccc2C#N)ncn1 [AZ, Azoxystrobin, reference compound] | > 500 µg/mL | 254 µg/mL (≈ 630 µM) | 59.59% | – | – | –
2 | COC=C(C(=O)OC)c1ccccc1CSc1nc2cc(OC)ccc2s1 [Compound 18] | – | – | – | 32.9 µg/mL (≈ 81.9 µM) | 1.89 µg/mL (≈ 4.71 µM) | approximately 82.59%
